From US7214668B2, “Phosphonic acid based prodrugs of PMEA and its analogues” (Metabasis Therapeutics, Inc., priority 2002, dated 2007)
Values joined by “and” are separate entries in the source; they are usually repeats but may differ in a detail not shown here. Identical values can stand only once. Like-named read-outs stand apart in the source and are kept apart here.

Tests used:
[1] = PMEApp accumulation in liver organ following oral administration to normal fasted rats; assay type: in vivo, rat; conditions: 30 mg/kg PMEA equivalents p.o.
Procedure: PMEA prodrugs were tested in vivo to identify prodrugs with suitable oral bioavailability and favorable intrahepatic activation rates.
Following oral administration of 30-mg/kg prodrug (PMEA equivalents) to normal, fasted rats, liver organ samples were freeze-clamped at 8 hr. […] The retention time of PMEApp was 18.6 minutes.

[2] = tested on: human liver microsomes; experiment: In vitro activation of enantiomers in human liver microsomes (glutathione by-product capture); assay type: in vitro ADME; conditions: 2 mg/mL human liver microsomes, glutathione adduct of by-product quantified
Procedure: The two enantiomers were compared for activation in human liver microsomes.
Human liver microsomes were purchased from In Vitro Technologies (IVT1032). […] The reactions were initiated by addition of NADPH following a 2-minute preincubation. Reactions were quenched with 60% methanol at 0, 2.5, 5, and 7.5 minutes. L-Glutamyl-L-(S-(3-oxo-3-(3-chlorophenyl)propyl)cysteinylglycine, a glutathione adduct of the by-product of prodrug activation, 3-Cl-phenyl vinyl ketone, was quantified following extraction of the reaction with 1.5 volumes of methanol. The extracted samples were centrifuged at 14,000 rpm in an Eppendorf microfuge and the supernatant analyzed by HPLC for L-Glutamyl-L-(S-(3-oxo-3-(3-chlorophenyl)propyl)cysteinylglycine content. Spiked L-Glutamyl-L-(S-(3-oxo-3-(3-chlorophenyl)propyl)cysteinylglycine (lot 20000127) standards (1–30 μM) were prepared in 2 mg/ml microsomes under reaction conditions and then quenched and processed in an identical fashion to unknown samples. For HPLC analysis, the loading mobile phase buffer (Buffer A) consisted of a 9:1 ratio (v/v) of 20 mM potassium phosphate, pH 6.2 and acetonitrile. Extract (100 uL) was injected onto a Beckman Ultrasphere ODS column (4.6×250 […], part#235329). […] The elution of L-Glutamyl-L-(S-(3-oxo-3-(3-chlorophenyl)propyl)cysteinylglycine (retention time 10.4 minutes) was monitored at 245 nm.

[3] = tested on: human liver microsomes; experiment: Kinetics of activation of Compound 4 to PMEA by human liver microsomes; assay type: in vitro ADME; conditions: 2 mg/mL human liver microsomes, 10 minutes, 37° C.
Procedure: The kinetics of activation of Compound 4 by the microsomal fraction of human liver were determined.
Human liver microsomes were purchased from In Vitro Technologies (IVT). Lot 1011 was prepared from a pool of 10 male donors with documented CYP3A4 activity (testosterone 6β-hydroxylation rate of 5.7 nmol/mg/min; IVT). […] Following a 2-minute preincubation at 37° C., reaction mixtures containing 100 mM KH2PO4, 2 mg/mL human liver microsomes, and 0, 30, 60, 100, 200 and 400 μM Compound 4 were started by addition of NADPH to 2 mM. The reaction was carried out for 10 minutes in an Eppendorf Thermomixer 5436 at 37° C., speed 6. […] Reactions were terminated by the addition of 1.5 volumes of methanol and extracts were pelleted at 14,000 rpm in an Eppendorf microfuge for 20 minutes. The supernatants (200 μl) were evaporated under vacuum and heat to dryness before resuspending in 80 μL buffer A (see below). Spiked standards of 9-[2-(phosophonomethoxy)ethyl]adenine, (PMEA, lot 980397, Metabasis Therapeutics) were prepared in the reaction mixture, and quenched and processed in an identical fashion. The ion-pairing buffer (Buffer A) consisted of 10 mM ammonium phosphate and 2.5 mM octyltriethylammonium phosphate, pH 5.5. After resuspension, samples were analyzed for PMEA by reverse phase HPLC. […]

[4] = Tissue distribution of PMEA equivalents after oral tritiated Compound 4 and bis POM PMEA in rats
Procedure: Total tritium counts were analyzed in solubilized samples of liver organ, kidney, plasma, urine, red blood cells, small intestine, as well as small intestine contents and feces obtained at various time points over 24 hours. Liver organ specificity was assessed by comparison of the temporal profiles of total tritium in liver organ versus kidney, small intestine, plasma, and red blood cells. Metabolite profiles in perchloric acid extracts of liver organ, kidney, small intestine, feces and urine were analyzed by HPLC.

[5] = Pharmacokinetics and oral bioavailability in beagle dog; assay type: in vivo
Procedure: Following an i.v. bolus and oral administration of 8 and 40 mg/kg (prodrug equivalent dose), respectively, of Compound 4 in PEG-400 to male beagle dogs (n=4), blood samples were collected at the following times: 5, 15, 30, 45 min and 1, 2, 4, 6, 8, 12, and 24 hrs post each dosing occasion. In addition, urine was collected over the following intervals: 0–12, 12–24, 24–48, and 48–72 hrs. Intact Compound 4 and PMEA were measured in the plasma and urine samples using an LC-MS/MS method. PK parameters were determined by non-compartmental analysis.

[6] = tested on: freshly isolated rat hepatocytes; experiment: Hepatotoxicity parameters in isolated normal and dexamethasone-induced rat hepatocytes
Procedure: Normal fed Sprague-Dawley rats weighing 280–310 g were administered dexamethasone intraperitoneally at 50 mg/kg once a day for four days. Dexamethasone was purchased from Sigma (lot#119H1328) and formulated as a suspension in corn oil (Sigma lot#107H1649) at 50 mg/mL. On the fifth day rats were used for hepatocyte isolations. […] Effects on glutathione levels were assessed by the DTNB (Ellman's reagent) method and viability was determined by the trypan blue exclusion assay and hepatic enzyme leakage assays (LDH, AST). […] Both assays were adapted from the protocol insert for a test tube assay to a microtiter plate assay.

[7] = tested on: freshly isolated rat hepatocytes; conditions: 250 μM prodrug
Procedure: PMEA prodrugs were tested.
Hepatocytes were prepared from fed Sprague-Dawley rats (250–300 g) according to the procedure of Berry and Friend (Berry, M. N. Friend, D. S., J. Cell Biol. 43:506–520 (1969)) as modified by Groen (Groen, A. K. et al., Eur. J. Biochem 122:87–93 (1982)). Hepatocytes (60 mg/ml wet weight, >85% trypan blue viability) were incubated in 2 ml of krebs-bicarbonate buffer containing 20 mM glucose, and 1 mg/ml BSA for 4 hours in the presence of 250 μM PMEA prodrugs (from 25 mM stock solutions of prodrugs in methanol). At appropriate time points throughout the incubation (0, 1, 2, 4 hours), 400-μl aliquots of the cell suspension were taken and centrifuged through a silicon/mineral oil layer into 10% perchloric acid to extract intracellular nucleotides. The acidic cell extracts were neutralized with 0.3 volumes of 3M KOH/3M […] before evaluating PMEApp levels by ion exchange HPLC (Hewlett Packard 1050) using a Whatman Partisphere SAX (5 μm, 4.6×125 mm) column. Samples were loaded onto the column in 0.3M-ammonium phosphate buffer pH 3.5 and eluted from the column with a gradient to 0.8 M ammonium phosphate pH 3.5.

[8] = 40 mg/kg p.o. vs 8 mg/kg i.v., dog
[9] = 1 mM Compound 4, normal rat hepatocytes

In the case of `Nc1ncnc2c1ncn2CCOCP1(=O)OCCC(c2cccc(Cl)c2)O1` (racemic) [Compound 4], the “Rats, PMEApp levels in liver organ @ 8 hr., 30 mg/kg, p.o.” value [1] is reported as 6.6 nmol/g, the “Activation (25 μM)” value ([2]; 25 μM) is reported as 38 pmol/mg/min and the “Activation (250 μM)” value ([2]; 250 μM) is reported as 283 pmol/mg/min. For the same compound, the Km [3] was 11 µM, the “Compound 4/bisPOM PMEA (fold difference), Kidney” value ([4]; 30 mg/kg PMEA equivalents p.o.) was 0.26 fold and the “Compound 4/bisPOM PMEA (fold difference), Liver organ” value ([4]; 30 mg/kg PMEA equivalents p.o.) was 3.1 fold and 3.11 fold. For the same compound, the “Compound 4/bisPOM PMEA (fold difference), Small Intestine” value ([4]; 30 mg/kg PMEA equivalents p.o.) was 0.04 fold, the “Fold decrease of exposure of PMEA equivalents in kidney relative to bis POM PMEA” value ([4]; 30 mg/kg PMEA equivalents p.o.) was 3.8 fold and the “Fold decrease of exposure of PMEA equivalents in small intestine relative to bis POM PMEA” value ([4]; 30 mg/kg PMEA equivalents p.o.) was 25 fold. The “Dose found as intact prodrug in feces” value ([4]; after 24 hours, p.o.) was roughly 60%, the “Tolerability (signs of ill health or mortality)” value ([5]; 8 mg/kg i.v. bolus and 40 mg/kg oral in PEG-400, male beagle dogs) was “well tolerated” and the “Mean residence time (MRTiv)” value ([5]; 8 mg/kg i.v. bolus, dog) was 1.0 h. For the same compound, the Plasma clearance ([5]; 8 mg/kg i.v. bolus, dog) was 29.5 mL/min/kg, the “Volume of distribution (Vss)” value ([5]; 8 mg/kg i.v. bolus, dog) was 1.70 L/kg and the “Mean terminal elimination half-life t1/2 of intact prodrug, i.v.” value ([5]; 8 mg/kg i.v. bolus, dog plasma) was 0.8 h. The “i.v. dose excreted in the urine as PMEA” value ([5]; 8 mg/kg i.v., dog) was 2%, the “i.v. dose excreted in the urine as intact Compound 4” value ([5]; 8 mg/kg i.v., dog) was “approximately 30%” and the “OBAV based on dose normalized oral-to-i.v. AUC ratios” value [5, 8] was 112%. For the same compound, the “OBAV based on urinary excretion of Compound 4” value [5, 8] was 82%, the “Half-life of PMEA after oral dosing of the prodrug” value ([5]; 40 mg/kg p.o., dog) was 5.4 h and the “Mean peak plasma concentration (Cmax) of intact prodrug, oral” value ([5]; 40 mg/kg p.o., dog) was 10200 ng/mL. For the same compound, the “Mean plasma Cmax of PMEA following oral administration” value ([5]; 40 mg/kg p.o., dog) was 240 ng/mL, the “Terminal t1/2 after p.o. dosing” value ([5]; 40 mg/kg p.o., dog) was 1.0 h and the “Tmax of PMEA following oral administration” value ([5]; 40 mg/kg p.o., dog) was 1.4 h. The “Tmax of intact prodrug, oral” value ([5]; 40 mg/kg p.o., dog) was 0.8 h and 0.81 h, the “p.o. dose excreted in the urine as PMEA” value ([5]; 40 mg/kg p.o., dog) was 1.7% and the “p.o. dose excreted in the urine as intact prodrug” value ([5]; 40 mg/kg p.o., dog) was 40%. For the same compound, the Cmax ([5]; 40 mg/kg p.o., dog, read-out: Mean peak plasma concentration (Cmax) of intact prodrug, oral) was roughly 24 µM, the Cmax ([5]; 40 mg/kg p.o., dog, read-out: Mean plasma Cmax of PMEA following oral administration) was roughly 0.88 µM and the “% F (orally bioavailable)” value ([5]; beagle dog, conclusion) was roughly 100%. The “Fold reduction of systemic PMEA exposure (dose-normalized plasma AUC) versus bis POM PMEA literature” value ([5]; dog) was 18.8 fold, the “PMEA AUC (dose-normalized plasma)” value ([5]; dog, after Compound 4) was 0.58 and the “Viability or hepatic enzyme leakage following glutathione depletion” value ([6]; 250 μM and 1 mM, hepatocytes from dexamethasone pre-treated rats) was “no significant changes”. For the same compound, the “Glutathione reduction, 250 μM” value ([6]; 250 μM, hepatocytes from dexamethasone pre-treated rats, 2-hour incubation) was 50%, the “Glutathione levels, normal hepatocytes” value [6, 9] was “no significant decrease” and the “Viability or hepatic enzyme leakage, normal hepatocytes” value [6, 9] was “no significant changes”. The “Glutathione reduction, 1 mM” value ([6]; 1 mM, hepatocytes from dexamethasone pre-treated rats, 2-hour incubation) was greater than 95% and the “Rat Hepatocytes, PMEApp formation, 250 μM, AUC 0–4 h” value [7] was 109.3 nmol·h/g.
